Data reported in the supplement of paper PMC5662764.
± gives the standard deviation of the averaged measurements.

Key:
Assay in all cases: normalised growth rate inhibition (GR value) relative to DMSO control (GR (1 = untreated growth, 0 = cytostasis, <0 = cytotoxic)); higher = less growth inhibition
Conditions in all cases: 72 h
[1] = tested on: BT20
Method: (§1)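 Breast cancer cell lines (BT-20, Hs 578T, MCF 10A, MCF7, MDA-MB-231, SK-BR-3) were plated in 384-well plates and treated 24 h later with drugs at six concentrations (0.04-10 µM). Viable cells were counted by Hoechst/dead-cell-stain imaging at 0 and 72 h. Counts were normalised to DMSO controls on the same plate to give the relative cell count and the growth-rate inhibition (GR) value; technical plate triplicates were averaged for each biological replicate.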

[2] = tested on: MCF10A
Method: as §1

[3] = tested on: HS578T
Method: as §1

[4] = tested on: SKBR3
Method: as §1

[5] = tested on: MDAMB231
Method: as §1

[6] = tested on: MCF7
Method: as §1

Structure (SMILES) | normalised growth rate inhibition ([1]; 0.04 µM) | normalised growth rate inhibition ([1]; 0.12 µM) | normalised growth rate inhibition ([1]; 0.37 µM) | normalised growth rate inhibition ([1]; 1.11 µM) | normalised growth rate inhibition ([1]; 3.33 µM) | normalised growth rate inhibition ([1]; 10 µM) | normalised growth rate inhibition ([2]; 0.04 µM) | normalised growth rate inhibition ([2]; 0.12 µM) | normalised growth rate inhibition ([2]; 0.37 µM) | normalised growth rate inhibition ([2]; 1.11 µM) | normalised growth rate inhibition ([2]; 3.33 µM) | normalised growth rate inhibition ([2]; 10 µM) | normalised growth rate inhibition ([3]; 0.04 µM) | normalised growth rate inhibition ([3]; 0.12 µM) | normalised growth rate inhibition ([3]; 0.37 µM) | normalised growth rate inhibition ([3]; 1.11 µM) | normalised growth rate inhibition ([3]; 3.33 µM) | normalised growth rate inhibition ([3]; 10 µM) | normalised growth rate inhibition ([4]; 0.04 µM) | normalised growth rate inhibition ([4]; 0.12 µM) | normalised growth rate inhibition ([4]; 0.37 µM) | normalised growth rate inhibition ([4]; 1.11 µM) | normalised growth rate inhibition ([4]; 3.33 µM) | normalised growth rate inhibition ([4]; 10 µM) | normalised growth rate inhibition ([5]; 0.04 µM) | normalised growth rate inhibition ([5]; 0.12 µM) | normalised growth rate inhibition ([5]; 0.37 µM) | normalised growth rate inhibition ([5]; 1.11 µM) | normalised growth rate inhibition ([5]; 3.33 µM) | normalised growth rate inhibition ([5]; 10 µM) | normalised growth rate inhibition ([6]; 0.04 µM) | normalised growth rate inhibition ([6]; 0.12 µM) | normalised growth rate inhibition ([6]; 0.37 µM) | normalised growth rate inhibition ([6]; 1.11 µM) | normalised growth rate inhibition ([6]; 3.33 µM) | normalised growth rate inhibition ([6]; 10 µM)
Nc1ccc(C(=O)Nc2cccc(-c3nc(N4CCOCC4)c4oc5ncccc5c4n3)c2)cn1 | 1.06 ± 0.025 | 0.999 ± 0.032 | 0.938 ± 0.029 | 0.746 ± 0.053 | 0.577 ± 0.07 | 0.0483 ± 0.094 | 1.015 ± 0.0057 | 0.989 ± 0.01 | 0.951 ± 0.022 | 0.824 ± 0.025 | 0.734 ± 0.051 | 0.301 ± 0.043 | 1.02 ± 0.029 | 0.984 ± 0.013 | 0.972 ± 0.033 | 0.865 ± 0.022 | 0.668 ± 0.029 | 0.13 ± 0.053 | 1.12 ± 0.043 | 1.03 ± 0.053 | 1.03 ± 0.075 | 0.89 ± 0.072 | 0.769 ± 0.052 | 0.17 ± 0.047 | 1.04 ± 0.032 | 0.954 ± 0.058 | 0.869 ± 0.082 | 0.747 ± 0.094 | 0.657 ± 0.14 | 0.0924 ± 0.24 | 1.06 ± 0.031 | 0.963 ± 0.034 | 0.856 ± 0.046 | 0.606 ± 0.041 | 0.37 ± 0.12 | -0.043 ± 0.35
COc1cc(C(=O)N2CCC(N3CCN(C)CC3)CC2)ccc1Nc1ncc2c(n1)N(C)c1ccccc1C(=O)N2C [XMD-1150] | 0.885 ± 0.11 | 0.85 ± 0.16 | 0.803 ± 0.16 | 0.722 ± 0.17 | 0.551 ± 0.12 | 0.238 ± 0.15 | 0.973 ± 0.013 | 0.937 ± 0.021 | 0.841 ± 0.036 | 0.665 ± 0.078 | 0.384 ± 0.12 | 0.123 ± 0.052 | 0.964 ± 0.035 | 0.913 ± 0.051 | 0.815 ± 0.034 | 0.66 ± 0.0096 | 0.411 ± 0.039 | -0.053 ± 0.089 | 0.677 ± 0.17 | 0.669 ± 0.12 | 0.609 ± 0.12 | 0.514 ± 0.16 | 0.348 ± 0.18 | 0.0641 ± 0.18 | 0.891 ± 0.054 | 0.818 ± 0.088 | 0.567 ± 0.12 | 0.353 ± 0.077 | 0.189 ± 0.029 | 0.0699 ± 0.13 | 0.852 ± 0.021 | 0.784 ± 0.014 | 0.599 ± 0.018 | 0.365 ± 0.034 | 0.201 ± 0.012 | 0.0333 ± 0.0087
CO[C@H]1C[C@@H]2CC[C@@H](C)[C@@](O)(O2)C(=O)C(=O)N2CCCC[C@H]2C(=O)O[C@H]([C@H](C)C[C@@H]2CC[C@@H](O)[C@H](OC)C2)CC(=O)[C@H](C)/C=C(\C)[C@@H](O)[C@@H](OC)C(=O)[C@H](C)C[C@H](C)/C=C/C=C/C=C/1C [sirolimus] | 0.54 ± 0.03 | 0.514 ± 0.062 | 0.522 ± 0.056 | 0.524 ± 0.067 | 0.536 ± 0.061 | 0.587 ± 0.043 | 0.982 ± 0.074 | 0.999 ± 0.069 | 0.995 ± 0.082 | 0.997 ± 0.077 | 1 ± 0.089 | 0.986 ± 0.087 | 0.629 ± 0.089 | 0.619 ± 0.048 | 0.619 ± 0.055 | 0.632 ± 0.072 | 0.621 ± 0.066 | 0.62 ± 0.09 | 0.47 ± 0.069 | 0.449 ± 0.056 | 0.405 ± 0.12 | 0.389 ± 0.09 | 0.366 ± 0.082 | 0.353 ± 0.1 | 0.802 ± 0.049 | 0.781 ± 0.039 | 0.812 ± 0.048 | 0.787 ± 0.042 | 0.784 ± 0.07 | 0.8 ± 0.087 | 0.502 ± 0.075 | 0.502 ± 0.07 | 0.486 ± 0.048 | 0.49 ± 0.08 | 0.495 ± 0.048 | 0.456 ± 0.096
c1ccc2c(-c3cnn4cc(-c5ccc(N6CCNCC6)cc5)cnc34)ccnc2c1 | 0.994 ± 0.036 | 0.905 ± 0.039 | 0.915 ± 0.093 | 0.645 ± 0.21 | -0.08 ± 0.34 | -0.507 ± 0.082 | 0.999 ± 0.014 | 0.9817 ± 0.0032 | 0.9705 ± 0.0076 | 0.953 ± 0.032 | 0.661 ± 0.34 | -0.396 ± 0.11 | 0.952 ± 0.025 | 0.911 ± 0.011 | 0.897 ± 0.027 | 0.862 ± 0.072 | 0.244 ± 0.58 | -0.361 ± 0.083 | 1.09 ± 0.11 | 1.04 ± 0.11 | 1.09 ± 0.056 | 0.987 ± 0.048 | -0.0902 ± 0.23 | -0.515 ± 0.11 | 0.996 ± 0.073 | 0.938 ± 0.084 | 0.925 ± 0.072 | 0.727 ± 0.056 | 0.0105 ± 0.45 | -0.355 ± 0.038 | 1.08 ± 0.047 | 1 ± 0.075 | 1.01 ± 0.072 | 0.868 ± 0.044 | 0.258 ± 0.34 | -0.368 ± 0.019
C=CC(=O)Nc1cc(-n2c(=O)ccc3cnc4ccc(-c5cn[nH]c5)cc4c32)ccc1C [QL-X-138] | 0.727 ± 0.052 | 0.726 ± 0.046 | 0.631 ± 0.11 | 0.535 ± 0.17 | 0.381 ± 0.18 | -0.222 ± 0.053 | 1.01 ± 0.063 | 0.981 ± 0.074 | 0.887 ± 0.15 | 0.791 ± 0.19 | 0.505 ± 0.29 | -0.112 ± 0.031 | 0.841 ± 0.034 | 0.76 ± 0.066 | 0.639 ± 0.024 | 0.501 ± 0.018 | 0.379 ± 0.061 | -0.0527 ± 0.082 | 0.463 ± 0.16 | 0.413 ± 0.11 | 0.233 ± 0.13 | 0.163 ± 0.09 | 0.0588 ± 0.1 | -0.231 ± 0.21 | 0.824 ± 0.13 | 0.834 ± 0.062 | 0.768 ± 0.059 | 0.672 ± 0.12 | 0.48 ± 0.13 | -0.135 ± 0.11 | 0.496 ± 0.22 | 0.41 ± 0.2 | 0.31 ± 0.098 | 0.205 ± 0.094 | 0.145 ± 0.061 | -0.0977 ± 0.021
Cc1cc2c(F)c(Oc3ncnn4cc(OC[C@@H](C)O)c(C)c34)ccc2[nH]1 [brivanib] | 0.949 ± 0.039 | 0.935 ± 0.016 | 0.956 ± 0.012 | 0.928 ± 0.024 | 0.925 ± 0.047 | 0.798 ± 0.03 | 0.992 ± 0.017 | 0.977 ± 0.023 | 0.969 ± 0.016 | 0.883 ± 0.043 | 0.74 ± 0.071 | 0.316 ± 0.043 | 0.963 ± 0.016 | 0.952 ± 0.02 | 0.963 ± 0.011 | 0.9364 ± 0.0061 | 0.9281 ± 0.0053 | 0.797 ± 0.055 | 0.811 ± 0.14 | 0.798 ± 0.17 | 0.807 ± 0.15 | 0.861 ± 0.11 | 0.85 ± 0.11 | 0.822 ± 0.1 | 0.902 ± 0.11 | 0.892 ± 0.081 | 0.91 ± 0.062 | 0.923 ± 0.062 | 0.895 ± 0.1 | 0.667 ± 0.094 | 0.902 ± 0.093 | 0.864 ± 0.064 | 0.898 ± 0.079 | 0.908 ± 0.062 | 0.949 ± 0.029 | 0.86 ± 0.035
